Experimental findings from PubChem BioAssay (NCI) are described below.

Where “and” joins values, the source holds several entries; their conditions need not be identical. Identical values can stand only once.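 Growth conditions: 96-well plates. Treatment: test compound, 48 hours, 5 concentrations. Analysis: linear interpolation between bracketing concentrations; unreached endpoints set to highest concentration. The concentration for 50% growth inhibition is given as GI50. At the TGI there is no net growth.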 Where only a bound is given, the exact number is not on record here.

What all share (test): NCI anticancer screen, dose series, 48 h
In experiment [1] the test system is A498 renal.
For experiment [2], the system named is CCRF-CEM leukemia.
For experiment [3], the system named is EKVX NSCLC.
Experiment [4] relates to IGROV1 ovarian.
Experiment [5] has as its system NCI-H522 lung.
The subject of experiment [6] is OVCAR-3 ovarian.
Experiment [7] relates to OVCAR-8 ovarian.
Experiment [8] concerns SF-268 CNS.
For experiment [9], the system named is U251 CNS.
Experiment [10] concerns DU-145 prostate.

As for `O=C(N/C(=C\c1cccc([N+](=O)[O-])c1)c1nc2ccccc2[nH]1)c1ccccc1`, the TGI in experiment [1], in experiment [2], in experiment [3], in experiment [4], in experiment [5] and in [6] was > 100 µM in each case. The TGI in experiment [7], in [8] and in experiment [9] was > 100 µM in each case.

As for `CSc1ccc2c(cc1=O)[C@@H](NC(=O)c1ccc(Cl)cc1)CCc1cc(O)c(O)c(O)c1-2`, the TGI in experiment [1] is > 100 µM; in [2], > 100 µM; in experiment [3], > 100 µM; in experiment [4], 50.8 µM; in experiment [5], 52.1 µM; in experiment [6], 56.5 µM. The TGI in experiment [7], in experiment [8] and in [9] was > 100 µM each time.

`N#CCC(=O)N/N=C1/C(=O)N(c2cc(Cl)ccc2Cl)C(=O)C(=O)C1c1nc2ccccc2s1` (stereo unspecified): the TGI in [1], in experiment [2], in experiment [3], in experiment [4], in [5] and in experiment [6] was > 100 µM throughout. Besides, the TGI in experiment [7], in experiment [8] and in [9] was > 100 µM throughout.

Turning to `C=C1C(=O)O[C@H]2[C@H](OC(C)=O)[C@@H](C)CCCC3(C)OC3CCC3(CO3)[C@H](O)C[C@@H]12` (stereo partly specified), the GI50 in [2] was 2.44 µM; in [10], 3.92 µM; in [3], 12.1 µM; in experiment [4], 13.9 µM; in [5] it was 9.6 µM; in experiment [6], 3.62 µM. The GI50 in [7] was 17.5 µM; in experiment [8] it was 15.2 µM; in experiment [9], 10.4 µM. Further, the TGI amounted to 7.27 µM in experiment [2]; 14.3 µM in experiment [10]; 30.3 µM in experiment [3]; 38.7 µM in experiment [4]; 28.7 µM in [5]; 18.1 µM in experiment [6]. Also, the TGI is > 100 µM in [7], 40.4 µM in experiment [8] and 22.1 µM in experiment [9].

For the molecule `COc1cc(CNCCN2C(=O)c3ccc4c5c(ccc(c35)C2=O)C(=O)N(CCNCc2cc(OC)c(OC)c(OC)c2)C4=O)cc(OC)c1OC`, the GI50 in experiment [10] was 0.197 µM; in experiment [4], 0.296 µM; in [5], 0.123 µM; in [6] it was 0.174 µM; in experiment [8], 0.786 µM; in [9], 0.182 µM. In addition, the TGI turned out to be 0.743 µM in experiment [10]; 1.89 µM in experiment [4]; 0.496 µM in experiment [5]; 0.548 µM in [6]; 2.37 µM in [8]; 0.684 µM in experiment [9].

Turning to `COC(=O)[C@@]1(C)C(=O)CC[C@@H]1C=O`, the TGI in experiment [1], in experiment [2], in [3], in experiment [4], in [5] and in experiment [6] was > 100 µM each time. The TGI in [7], in [8] and in [9] was > 100 µM in each case.

For the molecule `COc1cccc(-c2cc(=O)c3cc(N4CCOCC4)ccc3[nH]2)c1`, the GI50 in [2] is 0.0218 µM; in [10], 0.0546 µM; in experiment [3] it was 0.0608 µM; in [4] it was 0.145 µM; in [5], 0.0209 µM; in experiment [7] it was 0.0303 µM. Moreover, the GI50 in experiment [8] was 0.149 µM. Further, the TGI in experiment [2] was 0.111 µM; in experiment [3], > 100 µM; in experiment [4], > 100 µM; in [5], 0.0395 µM and 0.0852 µM; in [6] it was 0.0412 µM; in experiment [7] it was 0.337 µM and 0.152 µM. In addition, the TGI in [8] was determined as 57.6 µM.

For `CCOc1cn(C2OC(CO)C(O)C2O)c(=O)[nH]c1=O` (stereo unspecified), the TGI in [1], in [2], in experiment [3], in experiment [4], in experiment [5] and in [6] was > 100 µM each time. In addition, the results for the TGI in [7], in experiment [8] and in [9] were > 100 µM, > 100 µM and 43.7 µM, respectively.

In the case of `O=C(CCc1ccccc1)NS(=O)(=O)c1ccccc1`, the TGI in experiment [1], in experiment [2], in experiment [3], in [4], in experiment [5] and in experiment [6] was > 100 µM in each case. The TGI in [7], in experiment [8] and in experiment [9] was > 100 µM each time.

Take `CC(=O)OCCOCNC(=S)N/N=C/c1cc([N+](=O)[O-])ccc1O`: the TGI in [1], in experiment [2], in experiment [3], in [4], in [5] and in experiment [6] was > 100 µM each time. In addition, the TGI in experiment [7], in [8] and in experiment [9] was > 100 µM in each case.

As to `O=C(OCCCl)C1OC(n2cc(F)c(=O)[nH]c2=O)CC1O` (stereo unspecified), the TGI in experiment [1], in experiment [2], in [3], in [4], in experiment [5] and in experiment [6] was > 100 µM each time. The TGI in experiment [7], in experiment [8] and in experiment [9] was > 100 µM each time.

Regarding `C[C@@H](NS(=O)(=O)c1ccc(NC(=O)c2ccccc2)cc1)C(=O)O`, the TGI in experiment [1], in [2], in [3], in [4], in experiment [5] and in [6] was > 100 µM in each case. The TGI in [7], in [8] and in [9] was > 100 µM each time.

`CC(C)(C)c1cc(CCCCCCCC2(CCCCCCCc3cc(C(C)(C)C)cc(C(C)(C)C)c3)OC(COCCOCCCCCC#N)C(COCCOCCCCCC#N)O2)cc(C(C)(C)C)c1` (stereo unspecified): the TGI in experiment [1], in experiment [2], in [3], in [4], in experiment [5] and in [6] was > 100 µM each time. Also, the TGI in experiment [7], in [8] and in experiment [9] was > 100 µM in each case.

Take `Cc1ccc(NC(=O)CC/C(CC(=O)C(C)(C)C)=N\NC(=O)C[n+]2ccccc2)cc1C`: the TGI in experiment [1], in experiment [2], in experiment [3], in [4], in experiment [5] and in experiment [6] was > 100 µM each time. The TGI in experiment [7], in experiment [8] and in experiment [9] was > 100 µM in each case.

On to `CN(C)CCC(CCN(C)C)=NO`, for which the TGI in [1], in experiment [2], in experiment [3], in experiment [4], in experiment [5] and in experiment [6] was > 100 µM each time. Also, the TGI in experiment [7], in experiment [8] and in experiment [9] was > 100 µM each time.

Consider `C=CC(=O)NC(N)=NC#N`, for which the TGI was 285 µM in [1]; > 66.1 µM and 317 µM in experiment [2]; 330 µM in experiment [4]; 36.9 µM and 4.09 µM in experiment [5]; 310 µM in [6]; 484 µM in experiment [7]. The TGI in experiment [8] came to 260 µM; in experiment [9], 296 µM. Moreover, the figures for the GI50 in experiment [2] and in experiment [5] were 130 µM and 1.95 µM, respectively.

In the case of `Cc1ccc(S(=O)(=O)N2CCN(C=S)CC2)cc1`, the TGI in [1], in experiment [2], in experiment [3], in experiment [4], in experiment [5] and in experiment [6] was > 100 µM throughout. Moreover, the TGI in [7], in [8] and in [9] was > 100 µM each time.

In the case of `O=C(/C=C/c1ccccc1O)c1ccc([N+](=O)[O-])cc1`, the TGI was determined as 40.9 µM in [1]; 66.1 µM in [2]; 43.4 µM in experiment [3]; 26.3 µM in [4]; 33.1 µM in [5]; 25.5 µM in experiment [6]. Also, the TGI in experiment [7] turned out to be 29.1 µM; in experiment [8], 66.9 µM; in experiment [9] it was 28.5 µM.

`OCC[N+]12CCCN1CCC2`: the TGI in experiment [1], in experiment [2], in [3], in experiment [4], in [5] and in experiment [6] was > 100 µM in each case. For the same molecule, the TGI in experiment [7], in experiment [8] and in experiment [9] was > 100 µM throughout.

As for `COc1cc2oc(-c3ccccc3)cc(=O)c2c(O)c1C`, the TGI in experiment [1], in [2], in experiment [3], in [4], in [5] and in experiment [6] was > 100 µM each time. Besides, the TGI in [7], in experiment [8] and in experiment [9] was > 100 µM in each case.

`COc1ccc(C(=O)c2c3cc(OC)c(OC)c(OC)c3cc[n+]2C)cc1`: the TGI in experiment [1] is > 100 µM; in experiment [2], 71.2 µM; in [3], > 100 µM; in experiment [4] it was > 100 µM; in experiment [5], 62.4 µM; in experiment [7], > 100 µM. Moreover, the TGI in [8] and in experiment [9] was > 100 µM in each case.

Regarding `O=c1c2ccccc2c(/C=N\NC2=NCCN2)c2oc3ccccc3n12`, the GI50 in [2] was 32.2 µM; in [10], 15 µM; in [3], 16.5 µM; in experiment [5], 16.2 µM; in experiment [6] it was 18.6 µM; in [7], 19.4 µM. Further, the results for the GI50 in experiment [8] and in experiment [9] were 57.8 µM and 18.7 µM, respectively. Further, the TGI in [2] was > 100 µM; in experiment [10] it was 34.7 µM; in experiment [3], 37.2 µM; in experiment [5] it was 67.6 µM; in [6], 34.3 µM; in experiment [7], 45.6 µM. For the same molecule, the TGI in [8] is > 100 µM; in experiment [9], 51.2 µM.

In the case of `COC(=O)c1ccc(/C=C(\c2ccc([N+](=O)[O-])o2)S(=O)(=O)c2ccc(NC(C)=O)cc2)o1`, the TGI in experiment [10] came to 21.9 µM; in experiment [3] it was 26.3 µM; in experiment [4], 28.4 µM; in [5], 5.02 µM; in experiment [6], 19.7 µM; in experiment [7], 11.8 µM. Also, the TGI was 30.9 µM in experiment [8] and 28.8 µM in [9].

Take `COc1cc(CC2c3cc(OC)c(OC)cc3CCN2C)ccc1O` (stereo unspecified): the TGI in experiment [1], in experiment [2], in [3], in [5], in [6] and in [7] was > 100 µM in each case. Besides, the TGI in [8] and in experiment [9] was > 100 µM each time.

Turning to `O=C(Cc1nc2ccccc2o1)C(=O)Nc1cccc(Cl)c1`, the TGI in experiment [1], in experiment [2], in experiment [3], in experiment [4], in [5] and in experiment [6] was > 100 µM in each case. Besides, the TGI in experiment [7], in experiment [8] and in experiment [9] was > 100 µM in each case.

With `CCn1c2ccccc2c(=O)c2c(OC)ccc(OC)c21`, the TGI in experiment [1] is > 100 µM; in experiment [2], > 100 µM; in [3], > 100 µM; in experiment [4], > 100 µM; in experiment [5], > 93.8 µM; in experiment [6] it was > 100 µM. Moreover, the TGI in [7], in experiment [8] and in experiment [9] was > 100 µM each time.
